Results published in US9949976B2, “Kinase inhibitor and use thereof” (Sihuan Pharmaceutical Holdings Group Ltd., priority 2013, dated 2018).

Experiments:
[1] = target: CDK4/D3 (Homo sapiens, UniProt P11802); assay: In vitro enzyme-inhibiting activity, Caliper Mobility Shift method; assay type: biochemical; settings: read-out: CDK enzyme-inhibiting activity IC50 CDK4/D3
Experimental: Measurement of activity for inhibiting CDK4/6 kinase by Caliper Mobility Shift method.
1) Preparation of 1-Fold Buffer for CDK4 Kinase 800 μL stock solution containing 1000 mM HEPES (pH 7.5), and 40 μL stock solution containing 10% Triton X-100, were added to 39160 μL ultra pure water, and the resultant mixture was mixed homogeneously.
25 mL stock solution containing 4% Coating Reagent #3 (provided with the 12-sipper chip used in Caliper device), 50 mL stock solution containing 1000 mM HEPES (pH 7.5), 50 mL stock solution containing 0.5 M EDTA, and 0.25 mL stock solution containing 30% Brij-35, were added to 374.75 mL ultra pure water, and the resultant mixture was mixed homogeneously.
7 μL CDK4/D3 enzyme solution, and 9 μL stock solution containing 1M DTT were added to 1784 μL 1-fold CDK4 kinase buffer, and the resultant mixture was mixed homogeneously.
10 μL stock solution containing 100 mM ATP, 45 μL stock solution containing 1M MgCl2, and 45 μL FAM-tagged polypeptide 8, were added to 1700 μL 1-fold CDK4 kinase buffer, and the resultant mixture was mixed homogeneously.
DMSO solution containing 10 mM test compound was diluted with DMSO to a solution containing 50 μM test compound (which was used as a stock solution).
1) 5 μL 5-fold test compound solution and 10 μL 2.5-fold kinase solution were added to the corresponding wells in a 384-well plate, and incubated at room temperature for 10 min.
2) To the corresponding wells, 10 μL 2.5-fold polypeptide solution was added to start the enzymatic reaction, and incubation was performed at 28° C. for 5 h.
To the corresponding wells, 25 μL stop solution was added to stop the reaction.
The data was read by Caliper device, the inhibition rate was calculated by the following formula, and curve fitting was carried out by GraphPad5.0 software to get IC50 value. Inhibition rate=(maximal value−sample value)/(maximal value−minimal value)×100, wherein, maximal value: positive control without addition of test compound; minimal value: negative control without addition of enzyme.

[2] = Linear pharmacokinetics in rat (PO); assay type: in vivo, male SD rat; settings: for AUC(0-t) / Cmax / Tmax: male, SD, plasma
Experimental: Test animal: male SD rat, 3 rats/administration dose/test compound, weight: 200-240 g/rat.
100 μL whole blood was collected from caudal vein at each time point, added to an anticoagulation tube containing K2EDTA, and centrifuged at 8000 r/min in a high speed centrifuge for 6 min to separate the plasma; the plasma was stored in a refrigerator at −80° C.
The plasma samples of control agent and compound 1 were analyzed by precipitation of protein: to 30 μL plasma, 200 μL internal standard (acetonitrile solution containing 50 ng/mL PD0332991, the formula of which is
[drawing 62] prepared by referring to the method in Patent CN101001857A) was added; the resultant mixture was vortexed for 10 min at 1500 r/min, and centrifuged for 20 min at 4000 r/min; to 100 μL supernatant, 100 μL water was added; the resultant mixture was mixed homogeneously under vortexing and analyzed by LC-MS/MS.

[3] = PK in Colo-205 subcutaneous tumor model of BALB/c nude mouse; assay type: in vivo; settings: female, plasma, Colo-205 tumor-bearing nude mouse, PO QD 22 days, after last administration
Experimental: Test animal: female nude mouse (BALB/c), 8 mice/dose group/test compound, weight: 19-27 g/mouse.
COLO205 cancer cells were cultured in RPMI-1640 medium containing inactivated 10% fetal bovine serum, 100 U/mL penicillin, 100 μg/mL streptomycin and 2 mM glutamine, in a 37° C., 5% CO2 incubator. The initial concentration of cell culture was 5×10^5 cells/mL, and the cells were transferred to other bottles every 3 or 4 days and passaged. Tumor cells in exponential growth phase were used for in vivo tumor seeding.
COLO205 tumor cells suspended in PBS were seeded subcutaneously to right lateral thorax of experimental animal at 1×10^7 cells/0.1 mL, and the animal was sacrificed when the tumor grew to a volume of 800 mm^3 to 1000 mm^3; under aseptic conditions, tumors were peeled off, and necrotic tissues were removed; the well-grown tumor tissues were selected; the tumor cells were isolated and subjected to primary culture and proliferation, and then were subcutaneously seeded to animal. The tumor cells were passaged for two generations in mice by this method, and the primary culture cells were seeded subcutaneously to right lateral thorax of experimental animal, at 5×10^6 cells/0.1 mL per animal. When tumor grew to a volume of about 100 mm^3, the animals were grouped and administered. For oral administration, the administration volume is 0.1 mL/10 g body weight of animal.
Blood collection: blood was collected from intraocular canthus. After the last administration (22th Day) of control agent and compound 1, blood/tumor was collected at the same time points, wherein 8 nude mice for each dose group were divided into A and B groups
A group (No. 1-4): blood was collected at 15 min, 1 h and 2 h, and the mouse was sacrificed after blood collection at 2 h;
B group (No. 5-8): blood was collected at 4 h, 8 h and 24 h, and the mouse was sacrificed after blood collection at 24 h;
100 μL whole blood at each time point was collected and added to an anticoagulation tube containing K2EDTA, and centrifuged at 4500 r/min at 4° C. in a high speed centrifuge for 5 min to separate the plasma; the plasma was stored in a refrigerator at −80° C.
The plasma samples of control agent and compound 1 were analyzed by precipitation of protein: to 50 μL plasma, 150 μL internal standard (acetonitrile solution containing 50 ng/mL dexamethasone) was added; the resultant mixture was vortexed at 1500 r/min for 3 min, and centrifuged at 4000 r/min for 20 min; to 100 μL supernatant, 100 μL water was added; the resultant mixture was mixed homogeneously under vortexing and analyzed by LC-MS/MS.

[4] = PK in U-87MG subcutaneous tumor model of BALB/c nude mouse; assay type: in vivo; settings: female, plasma, U87MG tumor-bearing nude mouse, PO QD 3 weeks, after last administration (Day 22)
Experimental: Test animal: female nude mouse (BALB/c), 10 mice/dose group/test compound, weight: 18-22 g/mouse.
U87MG cells from ATCC were cultured in MEM medium containing 10% fetal bovine serum; the cells were digested with trypsin containing EDTA by conventional methods; the cells were passaged for two generations every week, and were continuously cultured in a 37° C., 5% CO2 incubator.
Tumor cells in exponential growth phase were collected; U87MG cells were adjusted with PBS and matrigel at a ratio of 1:1 to a concentration of 5×10^7/mL; 0.1 mL cell suspension was seeded subcutaneously to right back of each mouse by injection with a 1 mL syringe. Tumor volumes were observed and measured, and the average tumor volume of U87MG reached about 200 mm^3 8 days after seeding; the tumor-bearing mice were grouped and were treated by oral administration of test compounds, at a dose of 0.1 mL/10 g body weight.
Blood collection: blood was collected from intraocular canthus. After the last administration (Day 22) of control agent and compound 1, blood/tumor was collected at the same time points, wherein as to 10 nude mice for each dose group, one was for standby, and the other 9 mice were divided into three groups, i.e., A, B and C groups.
A group (No. 1-3): blood was collected before administration, and at 1 h and 2 h after administration, and the mouse was sacrificed after blood collection at 2 h;
B group (No. 4-6): blood was collected at 15 min, 4 h and 6 h after administration, and the mouse was sacrificed after blood collection at 6 h;
C group (No. 7-9): blood was collected at 30 min, 10 h and 24 h after administration, and the mouse was sacrificed after blood collection at 24 h;
300 μL whole blood was collected at each time point, added to an anticoagulation tube containing K2EDTA, and centrifuged at 8000 r/min in a high speed centrifuge for 6 min to separate the plasma; the plasma was stored in a refrigerator at −80° C.
The plasma samples of control agent and compound 1 were analyzed by precipitation of protein: 30 μL plasma was added to a 96-deep well plate, and 200 μL internal standard (acetonitrile solution containing 25 ng/mL PD0332991) was added; the resultant mixture was vortexed for 3 min at 1500 r/min, and centrifuged for 20 min at 4000 r/min; to 100 μL supernatant, 100 μL water was added; the resultant mixture was mixed homogeneously under vortexing and analyzed by LC-MS/MS.

Sequence of CDK4/D3 (P11802 whole entry): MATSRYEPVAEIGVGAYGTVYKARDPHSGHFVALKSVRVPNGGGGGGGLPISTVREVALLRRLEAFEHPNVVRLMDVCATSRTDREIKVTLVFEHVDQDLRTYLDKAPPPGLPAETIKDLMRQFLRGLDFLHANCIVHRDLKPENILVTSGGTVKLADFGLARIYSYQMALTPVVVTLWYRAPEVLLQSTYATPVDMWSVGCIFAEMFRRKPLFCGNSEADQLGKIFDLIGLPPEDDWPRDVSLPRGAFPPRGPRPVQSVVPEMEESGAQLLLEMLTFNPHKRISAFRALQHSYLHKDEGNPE
Sequence of CDK4/D3 (P30281 whole entry partner): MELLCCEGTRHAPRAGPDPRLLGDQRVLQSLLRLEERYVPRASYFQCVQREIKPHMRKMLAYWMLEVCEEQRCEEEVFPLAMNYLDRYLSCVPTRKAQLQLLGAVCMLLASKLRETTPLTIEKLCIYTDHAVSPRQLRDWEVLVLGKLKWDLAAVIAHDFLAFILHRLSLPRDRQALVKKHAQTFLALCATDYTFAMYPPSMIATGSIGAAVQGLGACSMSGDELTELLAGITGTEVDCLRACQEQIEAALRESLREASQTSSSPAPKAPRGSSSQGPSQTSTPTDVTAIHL

| SMILES | AUC(0-t) ([2]; 15 mg/kg) | Cmax ([2]; 15 mg/kg) | Tmax ([2]; 15 mg/kg) | AUC(0-t) ([2]; 45 mg/kg) | Cmax ([2]; 45 mg/kg) | Tmax ([2]; 45 mg/kg) | AUC(0-t) ([2]; 135 mg/kg) | Cmax ([2]; 135 mg/kg) | Tmax ([2]; 135 mg/kg) | AUC(0-t) ([3]; 25 mg/kg) | Cmax ([3]; 25 mg/kg) | Tmax ([3]; 25 mg/kg) | AUC(0-t) ([3]; 100 mg/kg) | Cmax ([3]; 100 mg/kg) | Tmax ([3]; 100 mg/kg) | AUC(0-t) ([4]; 50 mg/kg) | Cmax ([4]; 50 mg/kg) | Tmax ([4]; 50 mg/kg) | AUC(0-t) ([4]; 100 mg/kg) | Cmax ([4]; 100 mg/kg) | further results |
| --- | --- | --- | --- | --- | --- | --- | --- | --- | --- | --- | --- | --- | --- | --- | --- | --- | --- | --- | --- | --- | --- |
| CCN1CCN(Cc2cnc(Nc3cc(-c4cc(F)c5nc(C)n(C(C)C)c5c4)c(F)cn3)nc2)CC1 [Compound 1, 5-((4-ethylpiperazin-1-yl)methyl)-N-(5-fluoro-4-(4-fluoro-1-isopropyl-2-methyl-1H-benzo[d]imidazol-6-yl)pyridin-2-yl)pyrimidin-2-amine] | 12600 ng·h/mL | 941 ng/mL | 4 h | 37700 ng·h/mL | 1580 ng/mL | 4 h | 136000 ng·h/mL | 2410 ng/mL | 24 h | 12300 ng·h/mL | 1140 ng/mL | 2 h | 48300 ng·h/mL | 2420 ng/mL | 8 h | 23500 ng·h/mL | 1770 ng/mL | 2 h | 34800 ng·h/mL | 2180 ng/mL | IC50 [1]: 2.7 nM; linear pharmacokinetic properties ([2]; 15-135 mg/kg, AUClast increases with dose in a linear manner): good linear pharmacokinetic properties; Tmax ([4]; 100 mg/kg): 1 h; AUC(0-t) ([4]; 200 mg/kg): 49700 ng·h/mL; Cmax ([4]; 200 mg/kg): 2510 ng/mL; Tmax ([4]; 200 mg/kg): 6 h |
| CCN1CCN(Cc2ccc(Nc3ncc(F)c(-c4cc(F)c5nc(C)n(C(C)C)c5c4)n3)nc2)CC1 [LY2835219, reference compound] | 9690 ng·h/mL | 504 ng/mL | 4 h | 32600 ng·h/mL | 860 ng/mL | 4 h | 97600 ng·h/mL | 1370 ng/mL | 24 h | 9120 ng·h/mL | 733 ng/mL | 4 h | 23000 ng·h/mL | 1080 ng/mL | 8 h | 19400 ng·h/mL | 1160 ng/mL | 1 h | 27900 ng·h/mL | 1530 ng/mL | Tmax ([4]; 100 mg/kg): 4 h |
